In ChEMBL document CHEMBL1201862, “PubChem BioAssay data set” (2004):
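Following 48 hours of exposure in 96-well plates, responses at five concentrations were used to interpolate endpoints linearly. GI50 is the concentration that inhibits growth by half.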 Calls of active or inactive are those of the source. Rule as the data show it: active = GI50 up to about 1.1 µM and inactive = higher.

What was measured:
Experiment in all cases: NCI-60 cell line screen, 48 h
HOP-62 = tested on: HOP-62
NCI-H460 = tested on: NCI-H460
HCT-116 = tested on: HCT-116
OVCAR-3 = tested on: OVCAR-3
SF-539 = tested on: SF-539
HOP-92 = tested on: HOP-92
NCI-H522 = tested on: NCI-H522
SF-295 = tested on: SF-295
LOX IMVI = tested on: LOX IMVI
SNB-19 = tested on: SNB-19
A498 = tested on: A498
NCI-H23 = tested on: NCI-H23
MCF7 = tested on: MCF7
NCI-H226 = tested on: NCI-H226
MDA-N = tested on: MDA-N
MDA-MB-231 = tested on: MDA-MB-231
786-0 = tested on: 786-0
MDA-MB-435 = tested on: MDA-MB-435
T47D = tested on: T47D
BT-549 = tested on: BT-549

SMILES | GI50 (HOP-62) | GI50 (NCI-H460) | GI50 (HCT-116) | GI50 (OVCAR-3) | GI50 (SF-539) | GI50 (HOP-92) | GI50 (NCI-H522) | GI50 (SF-295) | GI50 (LOX IMVI) | GI50 (SNB-19) | GI50 (A498) | GI50 (NCI-H23) | GI50 (MCF7) | GI50 (NCI-H226) | GI50 (MDA-N) | GI50 (MDA-MB-231) | GI50 (786-0) | GI50 (MDA-MB-435) | GI50 (T47D) | GI50 (BT-549)
COc1cc([C@@H]2c3cc4c(cc3C[C@H]3COC(=O)[C@@H]32)OCO4)cc2c1OCO2 [AUSTROBAILIGNAN 1] | < 0.01 µM (active) | < 0.01 µM (active) | < 0.01 µM (active) | < 0.01 µM (active) | < 0.01 µM (active) | < 0.01 µM (active) | < 0.01 µM (active) | < 0.01 µM (active) | < 0.01 µM (active) | < 0.01 µM (active) | < 0.01 µM (active) | < 0.01 µM (active) | < 0.01 µM (active) | < 0.01 µM (active) | < 0.01 µM (active) | < 0.01 µM (active) | < 0.01 µM (active) | < 0.01 µM (active) |  | 
CN(C)/C=N\c1cccc2c1NSN2 | > 100 µM (inactive) | > 100 µM (inactive) | > 100 µM (inactive) | > 100 µM (inactive) | > 100 µM (inactive) | > 100 µM (inactive) | > 100 µM (inactive) | > 100 µM (inactive) | > 100 µM (inactive) | > 100 µM (inactive) | > 100 µM (inactive) | > 100 µM (inactive) | > 100 µM (inactive) | > 100 µM (inactive) | > 100 µM (inactive) | > 100 µM (inactive) | > 100 µM (inactive) | > 100 µM (inactive) | > 100 µM (inactive) | 
Nc1nc2c(ncn2C2C=CC(COS(N)(=O)=O)C2)c(=O)[nH]1 (stereo unspecified) | > 100 µM (inactive) | > 100 µM (inactive) | > 100 µM (inactive) | > 100 µM (inactive) | > 100 µM (inactive) | > 100 µM (inactive) |  | > 100 µM (inactive) | > 100 µM (inactive) | > 100 µM (inactive) |  | > 100 µM (inactive) | > 100 µM (inactive) | > 100 µM (inactive) | > 100 µM (inactive) | > 100 µM (inactive) | > 100 µM (inactive) | > 100 µM (inactive) | > 100 µM (inactive) | 
CC[N+]1(C)CCC(O)(c2ccc(C)cc2)C(C(=O)c2ccc(C)cc2)C1 (stereo unspecified) | > 100 µM (inactive) | > 100 µM (inactive) | 51.8 µM (inactive) | 21.7 µM (inactive) | 66.8 µM (inactive) | 23 µM (inactive) | 23.7 µM (inactive) | 37.4 µM (inactive) |  | > 100 µM (inactive) | > 100 µM (inactive) | > 100 µM (inactive) | 16.4 µM (inactive) | > 100 µM (inactive) | > 100 µM (inactive) | 26.7 µM (inactive) | 20.1 µM (inactive) | 69.2 µM (inactive) |  | > 100 µM (inactive)
COC(=O)CC(SCCO)SCCO | > 100 µM (inactive) | 70.3 µM (inactive) | > 100 µM (inactive) | > 100 µM (inactive) | > 100 µM (inactive) | > 100 µM (inactive) | > 100 µM (inactive) | > 100 µM (inactive) | > 100 µM (inactive) | > 100 µM (inactive) | > 100 µM (inactive) | > 100 µM (inactive) |  | > 100 µM (inactive) | > 100 µM (inactive) | > 100 µM (inactive) | > 100 µM (inactive) | > 100 µM (inactive) |  | 
COc1c2c3c4c(c(OC)c(=O)c5c(O)cc(OC)c(c6c(OC)cc(O)c(c1=O)c63)c54)C(C(C)O)C2C(C)O (stereo unspecified) | 0.689 µM (active) | 0.345 µM (active) | 0.847 µM (active) | 0.871 µM (active) | 0.796 µM (active) | 0.421 µM (active) | 0.415 µM (active) | 0.562 µM (active) | 0.883 µM (active) | 0.83 µM (active) | 0.918 µM (active) | 0.798 µM (active) | 1.03 µM (active) | 0.796 µM (active) | 0.767 µM (active) | 1.84 µM (inactive) | 0.789 µM (active) | 0.67 µM (active) | 1.18 µM (inactive) | 
CNc1cccc2c1C(C)C[C@]1(C)C(=O)Nc3ccccc3[C@H]21 (stereo partly specified) | 19.8 µM (inactive) | 21.2 µM (inactive) | 18.7 µM (inactive) | 17.5 µM (inactive) | 42 µM (inactive) |  | 20.5 µM (inactive) | 17.7 µM (inactive) | 15.8 µM (inactive) | 23 µM (inactive) | 24 µM (inactive) | 60.1 µM (inactive) | 22.3 µM (inactive) | 24.9 µM (inactive) | 26.6 µM (inactive) | 20.6 µM (inactive) | 17.9 µM (inactive) | 23.5 µM (inactive) | 41.1 µM (inactive) | 
